The target in assay [1] is AZT-21 (M41L/D67N/K70R/T215Y/K219Q) mutant reverse transcriptase (Human immunodeficiency virus type 1 BH10, UniProt P03366, D666N/K669R/K818Q/M640L/T814Y). Nature of the assay: Reverse transcriptase mutant assay, AZT-21. In kind it is biochemical, HIV-1. The conditions noted are these: for % Activity Remaining: AZT-21 {M41L/D67N/K70R/T215Y/K219Q}.
In assay [2] the target is T1, Y181I mutant reverse transcriptase (Human immunodeficiency virus type 1 BH10, UniProt P03366, Y780I).
T1 construct: mature chain of Gag-Pol polyprotein
The assay can be described thus: biochemical.

Assay [3] concerns the target T2, HIV integrase (Human immunodeficiency virus type 1 group M subtype B, UniProt P04585). Nature of the assay: biochemical. The following applies: read-out: Inhibition of strand transfer (IC50).
For assay [4], the target named is HIV reverse transcriptase (Human immunodeficiency virus type 1 group M subtype B, UniProt P03366). The assay can be described thus: Reverse transcriptase scintillation proximity assay (Example 4, Table 2). In kind it is biochemical. The conditions noted are these: read-out: IC50 (RT activity). A digest of the protocol: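 Purified RT with biotinylated 17mer/50mer RNA-DNA template-primer (39 nm), pH 8.0 Tris with 10 mM MgCl2, 60 mM KCl, dNTPs plus tritiated dTTP; inhibitor preincubated 10 min at 37 °C before enzyme, reaction 3 min. Incorporation read by streptavidin SPA counting.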
In general terms: SPA uses beads or plates that emit light when radiolabelled molecules are held near them.

Assay [5] concerns mutant strains of HIV reverse transcriptase. The assay can be described thus: Reverse transcriptase mutant assays, mutants overall. In kind it is biochemical. The procedure: (§1) The mutants were constructed using BspMI cassette mutagenesis as described previously by Boyer et al. (J Virol., 66:1031-1039 and 7533-7537 (1992)), which is hereby incorporated by reference. The RT assay has also been previously described by Boyer et al. (PNAS USA, 91:4882-4886 (1994)), which is also incorporated by reference. Briefly, RNA dependent DNA polymerase activity is assayed using purified RT protein and a poly(rC).olio(dG) template-primer as the substrate. The protein (1 μg) and substrate are assayed in a total reaction volume of 100 μl containing 0.01 unites poly(rC).olio(dG), 0.02 mM dGTP, 0.002 mCi [α-^32 P]dGTP, and a buffer containing 25 mM tris (pH 8.0), 75 mM KCL, 8.0 mM MgCl2, 2.0 mM dithiothreitol, and 10 mM 3-[(3-cholamidopropyl) diethylammoniol]-1-propane-sulfonate containing acetylated bovine serum albumin at 100 μg/ml. The assay mixture is incubated for 30 minutes, and then stopped by the addition of 50 μl of a 10 mg/ml solution of sheared and denatured salmon sperm DNA followed by 3.0 ml 10 percent trichloroacetic acid. The labeled polymer is collected by suction filtration on Whatman glass GF/C and counted.

Assay [6] deals with T3, V106A mutant reverse transcriptase (Human immunodeficiency virus type 1 BH10, UniProt P03366, V705A).
T3 construct: mature chain of Gag-Pol polyprotein
Nature of the assay: biochemical. In kind it is biochemical.

The target of assay [7] is T4, K103N mutant reverse transcriptase (Human immunodeficiency virus type 1 BH10, UniProt P03366, K702N).
T4 construct: mature RT cut from Gag-Pol polyprotein
Nature of the assay: biochemical.

In assay [8] the target is T2, HIV integrase. Nature of the assay: biochemical. The following applies: read-out: Inhibition of 3' processing activity (IC50).
Assay [9] addresses T5, L100I mutant reverse transcriptase (Human immunodeficiency virus type 1 BH10, UniProt P03366, L699I).
T5 construct: mature RT cut from Gag-Pol polyprotein
Nature of the assay: biochemical.

The target in assay [10] is T6, E138K mutant reverse transcriptase (Human immunodeficiency virus type 1 BH10, UniProt P03366, E737K).
T6 construct: mature RT cut from Gag-Pol polyprotein
Nature of the assay: biochemical.

In assay [11] the target is L74V mutant reverse transcriptase (Human immunodeficiency virus type 1 BH10, UniProt P03366, L673V). The assay can be described thus: Reverse transcriptase mutant assay, L74V. In kind it is biochemical, HIV-1.
The target of assay [12] is T7, WT reverse transcriptase (Human immunodeficiency virus type 1 BH10, UniProt P03366).
T7 construct: mature chain of Gag-Pol polyprotein
The assay can be described thus: Reverse transcriptase mutant assay, WT. In kind it is biochemical, HIV-1. Here is the method:
as §1

Where “and” joins values, the source holds several entries; their conditions need not be identical. Identical values can stand only once. Like-named read-outs stand apart in the source and are kept apart here.

Usually remaining activity stands for the share of the control activity or signal that is left under treatment. Read a high remaining activity as much activity left. One may read the IC50 as the midpoint of a concentration-inhibition curve. As for `O=C(Nc1ccc2c(O)cc(S(=O)(=O)O)cc2c1)Nc1ccc2c(O)cc(S(=O)(=O)O)cc2c1` [Compound 1, carbonyl-J], the “% Activity Remaining” value in assay [1] (10 μM) amounted to 33%; in [1] (50 μM), 4%; in assay [6] (10 μM), 33%; in assay [11] (10 μM), 34%; in assay [11] (50 μM), 6%. Also, in assay [1] (mutant M41L/D67N/K70R/T215Y/K219Q), the “difference in inhibition with respect to the wild type enzyme” value is on record as “virtually no difference in inhibition was found with respect to the wild type enzyme”. For the same molecule, the remaining activity at 10 µM is 18% in assay [2] (10 μM); 32% in assay [7] (10 μM); 11% in assay [9] (10 μM); 29% in assay [10] (10 μM); 29% in [12] (10 μM). The remaining activity at 50 µM in assay [2] (50 μM) came out at 1%; in assay [6] (50 μM) it was 4%; in assay [7] (50 μM) it was 3%; in [9] (50 μM), 1%; in [10] (50 μM), 4%; in assay [12] (50 μM) it was 3%. Besides, the IC50 in assay [3] was 2500 nM; in assay [4] it was ~5 µM and 5 µM; in assay [8], 2500 nM. Also, the “activity against mutant reverse transcriptases” value in [5] is given as “displays activity against non-nucleoside mutants as well as other mutants”.
